Assay results from patent publication US10543183B2, “Treatment and diagnosis of melanoma” (The Rockefeller University, priority 2012, dated 2020).

Tests used:
[1] = tested on: melanoma cells; assay: cell proliferation and viability assay; type: cell-based, human; conditions: MeWo, HT-144, SK-Mel-334.2; 1 μM, 5 days
Procedure: To determine the effects of miR-199a or miR-1908 over-expression and combinatorial LNA-induced miRNA inhibition on cell proliferation, 2.5×10^4 cells were seeded in triplicate in 6-well plates, and viable cells were counted after 5 days. […] Viable cells were counted after 8, 24, 48, 72, and 120 hours.
After 5 days, the number of viable and dead cells was counted using the trypan blue dye (72-57-1, Sigma-Aldrich), which selectively labels dead cells.

[2] = tested on: human melanoma cells (MeWo, MeWo-LM2, HT-144, SK-Mel-2, SK-Mel-334.2); assay: trans-well matrigel cell invasion assay, melanoma cells; type: cell-based; conditions: MeWo, HT-144, SK-Mel-2, SK-Mel-334.2; 1 μM for 72 hours
Procedure: Cancer cells were serum-starved in 0.2% FBS DMEM-based media for 12 hours. Trans-well invasion chambers (354480, BD Biosciences, Bedford, Mass.) were pre-equilibrated prior to beginning the assay by adding 0.5 mL of starvation media to the top and bottom chambers. After 30 minutes, the media in the top chamber was removed, and 0.5 mL of media containing 1×10^5 cancer cells was added into each matrigel-coated trans-well insert and incubated at 37° C. for 24 hours. For neutralization antibody and/or recombinant protein experiments, antibody/recombinant protein was added to each well at the start of the assay at the following concentrations as indicated in the figures: 5-40 μg/mL anti-ApoE 1D7 (Heart Institute, University of Ottawa), 5-40 μg/mL anti-IgG (AB-108-C, R&D Systems, Minneapolis, Minn.), 100 μM recombinant human ApoE3 (4696, BioVision, Mountain View, Calif.), and 100 μM BSA (A2153, Sigma-Aldrich). Upon completion of the assay, matrigel-coated inserts were washed with PBS, the cells at the top side of each insert were scraped off, and the inserts were fixed in 4% paraformaldehyde for 15 minutes. The inserts were then cut out and mounted onto slides using VectaShield mounting medium containing DAPI (H-1000, Vector Laboratories, Burlingame, Calif.). The basal side of each insert was imaged using an inverted fluorescence microscope (Zeiss Axiovert 40 CFL) at 5× magnification, taking three representative images for each insert. The number of invaded cells was quantified using ImageJ (NIH).
The cell invasion assay was performed as previously described in detail (Pencheva et al., 2012) using a trans-well matrigel invasion chamber system (354480, BD Biosciences). In brief, various melanoma cells were cultured in the presence of DMSO, GW3965, T0901317, or Bexarotene at 1 μM for 56 hours, after which melanoma cells were switched to starvation media (0.2% FBS) for 16 hours in the presence of each drug. Following starvation, cells were seeded into matrigel-coated trans-well inserts, and the invasion assay was allowed to proceed for 24 hours at 37° C. For ApoE antibody neutralization experiments, 40 μg/mL 1D7 anti-ApoE blocking antibody (Heart Institute, University of Ottawa, Ottawa, Canada) or 40 μg/mL anti-IgG control antibody (AB-108-C, R&D Systems, Minneapolis, Minn.) was added to each trans-well insert at the start of the assay.
The cells were then serum starved for 16 hours in 0.2% FBS media in the presence of each corresponding drug or DMSO. Following serum starvation, the cells were subjected to the trans-well invasion assay using a matrigel invasion chamber system (354480, BD Biosciences). Invasion chambers were pre-equilibrated prior to the assay by adding 0.5 mL of starvation media to the top and bottom wells. Meanwhile, cancer cells were trypsinized and viable cells were counted using trypan blue. Cancer cells were then resuspended at a concentration of 2×10^5 cells/1 mL starvation media, and 0.5 mL of cell suspension, containing 1×10^5 cells, was seeded into each trans-well. The invasion assay was allowed to proceed for 24 hours at 37° C. […] Following fixation, the inserts were washed in PBS, cut out, and mounted onto slides using VectaShield mounting medium containing DAPI nuclear stain (H-1000, Vector Laboratories). The basal side of each insert was imaged using an inverted fluorescence microscope (Zeiss Axiovert 40 CFL) at 5× magnification, and the number of DAPI-positive cells was quantified using ImageJ.

[3] = tested on: endothelial cells (HUVEC) recruited by human melanoma cells; assay: trans-well endothelial recruitment assay; type: cell-based; conditions: MeWo, HT-144, SK-Mel-2, SK-Mel-334.2; 1 μM for 72 hours
Procedure: 5×10^4 cancer cells were seeded into 24-well plates approximately 24 hours prior to the start of the assay. HUVEC's were grown to 80% confluency and serum starved in EGM-2 media supplemented with 0.2% FBS for 16 hours. HUVEC's were then pulsed with Cell Tracker Red CMTPX dye (C34552, Invitrogen) for 45 minutes. Meanwhile, cancer cells were washed with PBS, 0.5 mL of 0.2% FBS EGM-2 media was added to each well, and a 3.0 μm HTS Fluoroblock insert (351151, BD Falcon, San Jose, Calif.) was placed into each well. 1×10^5 HUVEC's, resuspended in 0.5 mL of starvation media, were seeded into each trans-well insert, and the recruitment assay was allowed to proceed for 16-18 hours at 37° C. For neutralization antibody and/or recombinant protein experiments, antibody/protein was then added to each well at the appropriate concentration as indicated in the figures: 40 μg/mL anti-ApoE 1D7, 40 μg/mL anti-IgG, 100 μM rhApoE3, and 100 μM BSA. Upon completion of the assay, the inserts were processed and analyzed as described for the matrigel invasion assay above (See Matrigel Invasion Assay).
The endothelial recruitment assay was carried out as previously described (Pencheva et al., 2012; Png et al., 2012). Melanoma cells were treated with DMSO, GW3965, T0901317, or Bexarotene at 1 μM for 56 hours, after which 5×10^4 cells were seeded in a 24-well plate in the presence of each drug and allowed to attach for 16 hours prior to starting the assay. HUVEC cells were serum-starved overnight in EGM-2 media containing 0.2% FBS. The following day, 1×10^5 HUVEC cells were seeded into a 3.0 μm HTS Fluoroblock trans-well migration insert (351151, BD Falcon, San Jose, Calif.) fitted into each well containing cancer cells at the bottom. The HUVEC cells were allowed to migrate towards the cancer cells for 20 hours at 37° C., after which the inserts were processed as previously described (Pencheva et al., 2012). For ApoE antibody neutralization experiments, 40 μg/mL 1D7 anti-ApoE blocking antibody (Heart Institute, University of Ottawa, Ottawa, Canada) or 40 μg/mL anti-IgG control antibody (AB-108-C, R&D Systems, Minneapolis, Minn.) was added to each trans-well insert at the start of the assay.
Subsequently, 5×10^4 cancer cells were seeded into 24-well plates in the presence of each drug or DMSO and allowed to attach for 16 hours prior to starting the assay. Human umbilical vein endothelial cells (HUVEC cells) were serum-starved in 0.2% FBS-containing media overnight. The following day, 1×10^5 HUVEC cells were seeded into a 3.0 μm HTS Fluoroblock insert (351151, BD Falcon) fitted into each well containing the cancer cells at the bottom. The HUVEC cells were allowed to migrate towards the cancer cells for 20 hours, after which the inserts were washed in PBS, fixed in 4% PFA, labeled with DAPI, and mounted on slides. The basal side of each insert was imaged using an inverted fluorescence microscope (Zeiss Axiovert 40 CFL) at 5× magnification, and the number of DAPI-positive cells was quantified using ImageJ.

[4] = tested on: B16F10 mouse melanoma cells; assay: subcutaneous B16F10 tumor growth in mice; type: in vivo; conditions: 50 mg/kg, i.p., daily
Procedure: First, the cells were treated with 500 μg/mL DTIC for one week. Following this initial DTIC treatment, the remaining (˜10%) viable cells were allowed to recover for one week, after which 750 μg/mL of DTIC was added to the cell media for 5 days. Subsequent to this high-dose treatment, the cells were allowed to recover in the presence of low-dose DTIC (100 μg/mL) for one week. The cells were then continuously cultured in cell media containing 200 μg/mL DTIC for at least one month prior to grafting the cells into mice. DTIC was added to fresh cancer cell media every 3 days. […] DTIC was dissolved in the presence of citric acid (1:1 by weight) in water and administered daily by intraperitoneal injection.

[5] = tested on: B16F10 mouse melanoma cells; assay: subcutaneous B16F10 tumor growth in mice; type: in vivo; conditions: 50 mg/kg, i.p., daily; remark: listed apart in the source
[6] = tested on: ApoE expression in human melanoma cells; assay: ApoE mRNA expression by qRT-PCR in melanoma cells; type: cell-based; conditions: MeWo cells; 500 nM, 1 μM, or 2 μM for 48 hours
Procedure: Total RNA was extracted from various cell lines using the miRvana kit (AM1560, Applied Biosystems, Austin, Tex.). The expression levels of mature miRNAs were quantified using the Taqman miRNA expression assay (4427975-0002228, Applied Biosystems). RNU44 was used as an endogenous control for normalization. For mRNA expression analyses, 600 ng of total RNA was reverse transcribed using the cDNA First-Strand Synthesis Kit (18080-051, Invitrogen), and roughly 200 ng of the resulting cDNA was then mixed with SYBR green PCR Master Mix (4309155, Applied Biosystems) and the appropriate primers. Each reaction was performed in quadruplicate, and mRNA expression was quantified by performing real-time PCR amplification using an ABI Prism 7900HT Real-Time PCR System (Applied Biosystems). GAPDH was used as an endogenous control for normalization. The following primers were used: […]
RNA was extracted from whole cell lysates using the Total RNA Purification Kit (17200, Norgen, Thorold, Canada). 600 ng of total RNA was then reverse transcribed into cDNA using the cDNA First-Strand Synthesis Kit (18080-051, Invitrogen), and quantitative real-time PCR amplification was performed as previously described (Pencheva et al., 2012) using an ABI Prism 7900HT Real-Time PCR System (Applied Biosystems, Austin, Tex.). Each PCR reaction was carried out in quadruplicates. Gene expression was normalized to GAPDH, which was used as an endogenous control.
For every sample, 600 ng of RNA was reverse transcribed into cDNA using the cDNA First-Strand Synthesis kit (Invitrogen). Approximately 200 ng of cDNA was mixed with SYBR® green PCR Master Mix and the corresponding forward and reverse primers specific for detection of human ApoE. Each reaction was carried out in quadruplicates, and ApoE mRNA expression levels were measured by quantitative real-time PCR amplification using an ABI Prism 7900HT Real-Time PCR System (Applied Biosystems). The relative ApoE expression was determined using the ΔΔCt method. GAPDH was used as an endogenous control for normalization purposes.

C=C(c1ccc(C(=O)O)cc1)c1cc2c(cc1C)C(C)(C)CCC2(C)C [bexarotene, reference compound]
cell proliferation or cell viability rates [1]: did not affect
ability of melanoma cells to invade through matrigel [2]: suppressed invasion only in half of the melanoma lines tested
ability of melanoma cells to recruit endothelial cells [3]: did not significantly affect

CN(C)/N=N/c1[nH]cnc1C(N)=O [dacarbazine, reference compound]
tumor growth by B16F10 DTIC-resistant cells [4]: did not affect
growth of DTIC-sensitive parental B16F10 line [5]: significantly suppressed

Fc1ccc(-c2c3cccc(C(F)(F)F)c3nn2Cc2ccc(F)cc2Cl)cc1 [LXR-623 3]
ApoE expression induction [6]: varied degrees of ApoE expression induction
